19 compounds from the supplement of paper PMC4862054 can be followed below.

Several values for one entry are separate records, joined by “and”; a condition that tells them apart may be missing. Identical values can stand only once. Bounds are passed on as bounds.

In assay [1] the test system is CAL-148. As to the kind of experiment: normalised viability (% of control), CellTiter-Blue; higher = more viable cells (about 100 = DMSO control). The note with it: incubation time: 72 h. As for the experimental part:
(§1)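 DSRT, CellTiter-Blue viability, 72 h incubation. Signal is normalised to DMSO and benzethonium chloride controls. Value is the normalised response at dose 7.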

For another assay, the system named is CAL-51. The description is as above. To be noted: incubation time: 72 h. The procedure: as §1
Another assay relates to CAL-85-1. Described as above. To be noted: incubation time: 72 h. As for the experimental part: as §1
In a further assay the test system is DU-4475. The assay is described as above. To be noted: incubation time: 72 h. As for the experimental part:
as §1

Another assay concerns HDQ-P1. The assay is described as above. To be noted: incubation time: 72 h. The procedure: as §1
Another assay relates to MDA-MB-453. The assay is described as above. The note with it: incubation time: 72 h. The procedure:
as §1

The test system of assay [2] is CAL-148. As to the kind of experiment: drug sensitivity score (DSS), CellTox Green (DSS (AUC-based score)); higher = stronger drug effect (viability inhibition or cytotoxicity); extreme values may be limits of the assay. The note with it: incubation time: 72 h. The method, boiled down: (§2)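 In 384-well plates, compound was laid out at 5 concentrations in 10-fold steps over a 10,000-fold range specific to each compound, and breast cancer cell lines were seeded on top in 20 µl suspension for a 72 h incubation. CellTox Green fluorescence and then CellTiter-Glo luminescence were read, and each plate was normalised to 0.1 % DMSO and a positive kill control. The drug sensitivity score was calculated from the area under the fitted dose-response curve.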

Another assay relates to MFM-223. The description is as above. The note with it: incubation time: 72 h. The procedure, abridged:
as §2

The test system of a further assay is MDA-MB-468. The note with it: 72 h. The procedure, abridged: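 The reported EC50 was fitted from percent-inhibition dose-response curves and censored at the highest concentration. Breast cancer cell lines (20 µl suspension) were added to 384-well plates containing compound in 5 µl medium and incubated 72 h, and viability was read with 2.5 µl CellTiter-Blue over 2 h at 37 °C at 560/590 nm. Each plate was normalised to vehicle and a positive kill control and checked by Z'-factor, and rows with zero drug sensitivity score were dropped.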

For the compound `COc1cc(Nc2c(C#N)cnc3cc(OCCCN4CCN(C)CC4)c(OC)cc23)c(Cl)cc1Cl` [Bosutinib] (1000 nM), the normalised viability was determined as 72% with CAL-148 [1]; 109% in the assay on CAL-51; 81.9% in the assay with CAL-85-1; 109% with DU-4475; 89.2% in the assay with HDQ-P1; 80.3% in the assay on MDA-MB-453.
Consider `CO[C@@H]1[C@H](N(C)C(=O)c2ccccc2)C[C@H]2O[C@]1(C)n1c3ccccc3c3c4c(c5c6ccccc6n2c5c31)C(=O)NC4` [Midostaurin] (1000 nM), for which the normalised viability worked out at 82.2% in the assay on CAL-148 [1]; 14.5% in the assay with CAL-51; 81.1% with CAL-85-1; 8.53% in the assay with DU-4475; 52.8% in the assay on HDQ-P1; 67.9% in the assay on MDA-MB-453.
As for `Cc1cc(Nc2nc(N[C@@H](C)c3ncc(F)cn3)ncc2Cl)[nH]n1` [AZD1480] (100 nM), the normalised viability came out at 105% in the assay with CAL-148 [1]; 108% with CAL-51; 82.2% with CAL-85-1; 93.2% with DU-4475; 98.6% in the assay on HDQ-P1; 105% in the assay with MDA-MB-453.
As for `O=C(O)CNC(=O)c1c(O)c2ccccc2n(Cc2ccccc2)c1=O` [IOX-2], the drug sensitivity score with CAL-148 [2] and in the assay with MFM-223 was 0 throughout.
Take `CC1(C)CCC(c2ccc(Cl)cc2)=C(CN2CCN(c3ccc(C(=O)NS(=O)(=O)c4ccc(N[C@H](CCN5CCOCC5)CSc5ccccc5)c(S(=O)(=O)C(F)(F)F)c4)cc3)CC2)C1` [Navitoclax] (1000 nM): the normalised viability in the assay on CAL-148 [1] is 80.1%; in the assay with CAL-51, 97.6%; in the assay with CAL-85-1, 81.2%; in the assay with DU-4475 it was 40.2%; in the assay with HDQ-P1, 68.2%; in the assay with MDA-MB-453, 75.5%.
Regarding `Cc1cn(-c2cc(NC(=O)c3ccc(C)c(Nc4nccc(-c5cccnc5)n4)c3)cc(C(F)(F)F)c2)cn1` [Nilotinib] (1000 nM), the normalised viability is 93.5% and 93.9% in the assay with CAL-148 [1]; 107% and 117% in the assay with CAL-51; 84.7% and 89.2% with CAL-85-1; 113% and 98.9% in the assay with DU-4475; 91.7% and 81.1% with HDQ-P1; 88.3% and 97.5% in the assay on MDA-MB-453.
On to `CCn1c(C(=O)N(C2CC2)C2CC2)cc2c3c(ncn3C)c(Nc3cc(C)n(C)n3)nc21`, for which the drug sensitivity score with CAL-148 [2] and with MFM-223 was 0 each time.
As to `CC1(COc2ccc3c(c2)ncn3-c2ccc3cccc(N4CCC(N)CC4)c3n2)COC1` [Crenolanib], the drug sensitivity score with CAL-148 [2] was found to be 6.78; in the assay with MFM-223, 0.
As to `CC(C)n1cnc2c(NCCc3ccc(O)cc3)nc(-c3csc4ccccc34)nc21` [StemRegenin 1], the drug sensitivity score with CAL-148 [2] came out at 0; in the assay with MFM-223, 5.31.
With `CO[C@@]12[C@H](COC(N)=O)C3=C(C(=O)C(C)=C(N)C3=O)N1C[C@@H]1N[C@@H]12` [Mitomycin C] (1000 nM), the normalised viability was found to be 96.3% with CAL-148 [1]; 108% with CAL-51; 77.2% in the assay on CAL-85-1; 95.6% with DU-4475; 88.9% in the assay on HDQ-P1; 91.4% in the assay with MDA-MB-453.
As to `CCNC(=O)CCC/C=C\C[C@@H]1[C@@H](/C=C/[C@@H](O)CCc2ccccc2)[C@H](O)C[C@@H]1O` [Bimatoprost] (550 nM), the normalised viability with CAL-148 [1] stood at 95.9%; in the assay on CAL-51, 118%; in the assay with CAL-85-1 it was 94.2%; in the assay with DU-4475 it was 104%; with HDQ-P1 it was 93.3%; with MDA-MB-453, 91.1%.
In the case of `CC(C)(C)c1nc(-c2cccc(NS(=O)(=O)c3c(F)cccc3F)c2F)c(-c2ccnc(N)n2)s1` [Dabrafenib], the drug sensitivity score in the assay on CAL-148 [2] stood at 1.13; in the assay on MFM-223 it was 0.
Turning to `CC(=O)[C@]1(O)Cc2c(O)c3c(c(O)c2[C@@H](O[C@H]2C[C@H](N)[C@H](O)[C@H](C)O2)C1)C(=O)c1ccccc1C3=O` [Idarubicin] (100 nM), the normalised viability with CAL-148 [1] was 11.3%; with CAL-51, 28%; in the assay on CAL-85-1, 75.7%; in the assay with DU-4475 it was 27.7%; with HDQ-P1, 78.3%; in the assay with MDA-MB-453, 79.4%.
On to `Cc1nc(C(=O)NCC(=O)O)c(O)c2ccc(Oc3ccccc3)cc12` [FG-4592], for which the drug sensitivity score in the assay with CAL-148 [2] and in the assay with MFM-223 was 0 each time.
For the compound `CNC(=O)c1ccccc1Sc1ccc2c(/C=C/c3ccccn3)n[nH]c2c1` [Axitinib] (1000 nM), the normalised viability with CAL-148 [1] was 97.5%; in the assay on CAL-51 it was 88.7%; in the assay with CAL-85-1, 76.9%; with DU-4475, 109%; in the assay with HDQ-P1 it was 76.8%; in the assay on MDA-MB-453 it was 60.4%.
On to `CC(O)(CS(=O)(=O)c1ccc(F)cc1)C(=O)Nc1ccc(C#N)c(C(F)(F)F)c1` (configuration not stated) [Bicalutamide], for which the “EC50, CellTiter-Blue viability” value in the assay with MDA-MB-468 is > 10 µM. Moreover, the drug sensitivity score in the assay with CAL-148 [2] and in the assay on MFM-223 was 0 in each case.
For `CC(C)C[C@H](NC(=O)[C@@H](COC(C)(C)C)NC(=O)[C@H](Cc1ccc(O)cc1)NC(=O)[C@H](CO)NC(=O)[C@H](Cc1c[nH]c2ccccc12)NC(=O)[C@H](Cc1cnc[nH]1)NC(=O)[C@@H]1CCC(=O)N1)C(=O)N[C@@H](CCCNC(=N)N)C(=O)N1CCC[C@H]1C(=O)NNC(N)=O` [Goserelin] (1000 nM), the normalised viability in the assay with CAL-148 [1] worked out at 97.1%; in the assay on CAL-51, 108%; with CAL-85-1, 93.2%; in the assay on DU-4475 it was 102%; in the assay on HDQ-P1 it was 96.9%; in the assay with MDA-MB-453, 96%.
As to `CCNC(=O)c1noc(-c2cc(C(C)C)c(O)cc2O)c1-c1ccc(CN2CCOCC2)cc1` [NVP-AUY922] (100 nM), the normalised viability with CAL-148 [1] was found to be 15.9%; with CAL-51 it was 10.1%; in the assay with CAL-85-1 it was 28.6%; with DU-4475, 0.71%; in the assay on HDQ-P1, 31.8%; in the assay on MDA-MB-453 it was 8.47%.
`O=C(CCCCCCC(=O)Nc1ccccc1)NO` [Vorinostat] (1000 nM): the normalised viability in the assay with CAL-148 [1] is 83.7% and 89.3%; with CAL-51, 107% and 99.4%; in the assay with CAL-85-1, 84% and 86.3%; in the assay with DU-4475, 103% and 97.4%; in the assay on HDQ-P1, 80.8% and 62.8%; in the assay on MDA-MB-453, 51.6% and 54.1%.
